One assay concerns the target T1, HRH2 (Homo sapiens, UniProt P25021).
T1 construct: Eurofins
Briefly: Eurofins SAFETYscan 78-target panel, off-target effects, HRH2. The assay is classed as biochemical. To be noted: antagonist / blocker / inhibitor mode. As for the experimental part:
(§1) FIG. 9. Table summarizing the Eurofins analysis of potential off-target effects of M1i-124. […] values above 10 μM are generally considered to be acceptable. FIG. 10. Representative hematoxylin and eosin (H&E) staining of organ sections (lung, heart, kidney, liver and adrenal) from control and M1i-124 treated mice described in FIG. 6.
(§2) Studies were performed using the services of Touchstone Biosciences and Eurofins Pharma Discovery Services. […] All blood samples (30-50 ul per sample) were taken via tail vein at 5, 15, and 30 minutes, and 1, 2, 4, 6, 8, and 24 hours after dosing. Blood samples are collected in Greiner MiniCollect K2 EDTA tubes, placed on ice, and within 30 minutes, centrifuged at 15,000 g for 5 minutes to obtain plasma samples. All plasma samples are stored at −70° C. until analysis. Plasma samples were prepared for analysis by LC-MS/MS, and key PK parameters, including terminal half-life (t 112), initial plasma concentration (C0), area under the plasma concentration vs. time curve (AUC), volume of distribution at steady-state (Vss), total plasma clearance (CLp), and mean residence time (MRT), were measured.
(§3) Assay details are available through Eurofins.

A further assay has as its target T2, nAChR(a4/b2) (Homo sapiens, UniProt P17787+P43681).
T2 construct: Eurofins
Kind of assay: Eurofins SAFETYscan 78-target panel, off-target effects, nAChR(a4/b2). In kind it is biochemical. To be noted: antagonist / blocker / inhibitor mode. As for the experimental part: as §1, §2, §3

For a further assay, the target named is T3, OPRM1 (Homo sapiens, UniProt P35372).
T3 construct: Eurofins
T3 sequence (P35372 whole entry): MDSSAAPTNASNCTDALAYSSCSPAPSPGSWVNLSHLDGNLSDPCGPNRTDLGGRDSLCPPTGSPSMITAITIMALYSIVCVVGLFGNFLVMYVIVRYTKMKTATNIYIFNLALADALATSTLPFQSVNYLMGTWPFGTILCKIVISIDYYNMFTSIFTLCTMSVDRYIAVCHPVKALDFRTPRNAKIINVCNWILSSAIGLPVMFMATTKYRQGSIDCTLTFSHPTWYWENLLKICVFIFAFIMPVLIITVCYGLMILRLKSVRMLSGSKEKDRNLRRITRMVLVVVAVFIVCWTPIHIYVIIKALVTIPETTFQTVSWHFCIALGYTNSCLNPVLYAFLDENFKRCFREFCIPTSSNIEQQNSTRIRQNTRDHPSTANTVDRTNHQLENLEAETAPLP
Kind of assay: Eurofins SAFETYscan 78-target panel, off-target effects, OPRM1. The settings on record: antagonist / blocker / inhibitor mode. The assay is classed as biochemical. As for the experimental part:
as §1, §2, §3

The target in another assay is T4, CHRM2 (Homo sapiens, UniProt P08172).
T4 construct: Eurofins
T4 sequence (P08172 1-466): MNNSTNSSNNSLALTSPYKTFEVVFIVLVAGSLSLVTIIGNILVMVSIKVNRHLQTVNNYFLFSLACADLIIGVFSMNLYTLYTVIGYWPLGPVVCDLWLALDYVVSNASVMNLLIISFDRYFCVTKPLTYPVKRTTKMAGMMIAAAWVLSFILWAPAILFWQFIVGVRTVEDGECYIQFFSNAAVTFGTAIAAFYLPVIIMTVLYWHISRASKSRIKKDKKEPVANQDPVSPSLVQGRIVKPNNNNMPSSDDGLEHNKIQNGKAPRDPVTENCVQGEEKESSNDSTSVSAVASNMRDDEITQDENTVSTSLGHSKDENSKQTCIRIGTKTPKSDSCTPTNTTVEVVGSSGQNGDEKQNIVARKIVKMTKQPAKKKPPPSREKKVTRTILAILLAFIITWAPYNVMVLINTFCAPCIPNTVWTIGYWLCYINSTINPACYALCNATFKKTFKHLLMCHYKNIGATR
Kind of assay: Eurofins SAFETYscan 78-target panel, off-target effects, CHRM2. In kind it is biochemical. To be noted: antagonist / blocker / inhibitor mode. As for the experimental part:
as §1, §2, §3

Another assay concerns the target T5, KvLQT1/minK (Homo sapiens, UniProt P15382+P51787).
T5 construct: Eurofins
Briefly: Eurofins SAFETYscan 78-target panel, off-target effects, KvLQT1/minK. The settings on record: antagonist / blocker / inhibitor mode. In kind it is biochemical. As for the experimental part:
as §1, §2, §3

Another assay deals with OCI-Ly3 ABC-DLBCL cells. Kind of assay: Cell proliferation (cell count, trypan blue exclusion), OCI-Ly3. The assay is classed as cell-based. The settings on record: OCI-Ly3, single dose of 1 μM, 12 days. An excerpt:
Cell number was counted using the trypan blue dye exclusion method with Vi-CELL cell viability analyzer (Beckman Coulter) at days 7, 10, and 12 of treatment with compounds. Cell proliferation was specifically evaluated using the CellTrace Violet reagent (ThermoFisher Cat #C34571) which undergoes dilution with each round of cell division. 1.5×10^6 cells were washed twice in PBS and resuspended in 2 mls of PBS.

In the next assay the target is T6, BCL10-MALT1 interaction (Homo sapiens, UniProt Q9UDY8).
T6 sequence (Q9UDY8 1-824): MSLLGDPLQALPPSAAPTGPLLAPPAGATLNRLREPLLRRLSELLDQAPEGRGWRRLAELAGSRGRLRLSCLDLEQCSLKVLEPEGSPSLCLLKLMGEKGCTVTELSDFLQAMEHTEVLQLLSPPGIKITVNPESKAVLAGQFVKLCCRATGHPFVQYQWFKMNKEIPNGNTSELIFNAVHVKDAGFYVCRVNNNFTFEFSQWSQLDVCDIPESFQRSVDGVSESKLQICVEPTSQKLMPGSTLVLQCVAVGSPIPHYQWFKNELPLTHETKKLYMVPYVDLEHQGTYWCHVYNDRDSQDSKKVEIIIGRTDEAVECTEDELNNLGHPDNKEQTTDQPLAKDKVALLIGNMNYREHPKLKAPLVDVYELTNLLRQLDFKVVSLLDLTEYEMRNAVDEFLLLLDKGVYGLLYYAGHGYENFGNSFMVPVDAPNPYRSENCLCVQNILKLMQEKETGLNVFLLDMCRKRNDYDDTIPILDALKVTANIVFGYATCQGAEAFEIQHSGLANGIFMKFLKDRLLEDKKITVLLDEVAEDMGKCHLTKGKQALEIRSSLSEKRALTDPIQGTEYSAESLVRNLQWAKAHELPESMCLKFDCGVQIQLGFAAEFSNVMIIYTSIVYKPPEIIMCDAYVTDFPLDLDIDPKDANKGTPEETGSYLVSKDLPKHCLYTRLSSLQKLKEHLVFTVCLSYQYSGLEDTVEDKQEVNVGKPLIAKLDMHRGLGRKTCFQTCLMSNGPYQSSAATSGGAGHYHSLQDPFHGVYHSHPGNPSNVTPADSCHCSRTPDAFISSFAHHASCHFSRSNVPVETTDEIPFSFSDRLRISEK
Briefly: ELISA-based protein-protein interaction assay. In kind it is binding. Set-up: GST-tagged recombinant human full-length MALT1 protein (Novus Biologicals Cat #H00010892-P01); purchased Novus Biologicals H00010892-P01. As for the experimental part: On a high-binding 96-well ELISA microplate (Greiner Cat #655061), 100 ng of His-tagged recombinant human full-length Bcl10 protein (ProteinTech Cat #Ag12162) in 100 ul PBS was allowed to adhere overnight in 4° C. The plate was blocked with 5% BSA in PBS for 1 hour at room temperature. After washing twice with PBS-T, a mixture of 100 ng of GST-tagged recombinant human full-length MALT1 protein (Novus Biologicals Cat #H00010892-P01), +/−compound that was preincubated for 1 hour in 100 ul PBS, was added to the plate for 1 hour at room temperature. After washing three times with PBS-T, anti-MALT1 antibody in 5% BSA in PBS was added at 1:1000 dilution for 1 hour at room temperature. After washing three times with PBS-T, HRP-conjugated secondary antibody in 5% BSA in PBS was added at 1:5000 dilution for 1 hour at room temperature. After washing three times with PBS-T, 100 ul of TMB was added for 5 minutes, and 100 ul of 2 M sulfuric acid was added to stop the reaction. The plate was read at 450 nm using a spectrophotometer (Molecular Devices SpectraMax i3).

The text below walks through data of patent US20240124410A1, “SMALL MOLECULES AND THEIR USE AS MALT1 INHIBITORS” (University of Pittsburgh - Of the Commonwealth System of …, priority 2021, published 2024).

Structures are written as SMILES.

T2 sequence (P43681 29-627 limits assumed): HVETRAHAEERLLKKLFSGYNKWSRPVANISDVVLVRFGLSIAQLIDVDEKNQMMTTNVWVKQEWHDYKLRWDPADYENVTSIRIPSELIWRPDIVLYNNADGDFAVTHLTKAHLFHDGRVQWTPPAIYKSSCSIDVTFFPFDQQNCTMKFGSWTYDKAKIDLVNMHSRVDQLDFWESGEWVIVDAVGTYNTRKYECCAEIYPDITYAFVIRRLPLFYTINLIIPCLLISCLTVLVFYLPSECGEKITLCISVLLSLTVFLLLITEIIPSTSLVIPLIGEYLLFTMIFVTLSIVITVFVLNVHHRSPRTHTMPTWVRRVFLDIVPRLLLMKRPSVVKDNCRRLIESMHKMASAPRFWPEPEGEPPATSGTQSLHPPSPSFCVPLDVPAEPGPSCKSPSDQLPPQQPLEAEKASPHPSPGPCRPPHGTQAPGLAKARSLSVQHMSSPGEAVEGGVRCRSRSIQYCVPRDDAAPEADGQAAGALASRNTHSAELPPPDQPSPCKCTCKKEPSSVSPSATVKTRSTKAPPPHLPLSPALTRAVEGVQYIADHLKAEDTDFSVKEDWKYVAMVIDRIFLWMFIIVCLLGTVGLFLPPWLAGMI
T2 sequence (P17787 26-502): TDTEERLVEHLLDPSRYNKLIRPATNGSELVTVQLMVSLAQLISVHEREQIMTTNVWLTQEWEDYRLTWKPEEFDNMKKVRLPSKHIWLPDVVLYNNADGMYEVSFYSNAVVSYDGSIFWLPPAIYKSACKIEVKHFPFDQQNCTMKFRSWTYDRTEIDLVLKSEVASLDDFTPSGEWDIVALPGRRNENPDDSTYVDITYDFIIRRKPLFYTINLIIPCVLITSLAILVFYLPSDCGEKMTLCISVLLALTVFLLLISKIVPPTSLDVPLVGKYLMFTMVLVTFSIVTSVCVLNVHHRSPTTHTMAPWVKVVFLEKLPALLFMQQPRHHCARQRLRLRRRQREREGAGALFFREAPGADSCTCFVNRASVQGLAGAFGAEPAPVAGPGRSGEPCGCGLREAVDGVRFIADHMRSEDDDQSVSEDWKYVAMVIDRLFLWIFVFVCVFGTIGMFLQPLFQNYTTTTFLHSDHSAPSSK
T1 sequence (P25021 whole entry): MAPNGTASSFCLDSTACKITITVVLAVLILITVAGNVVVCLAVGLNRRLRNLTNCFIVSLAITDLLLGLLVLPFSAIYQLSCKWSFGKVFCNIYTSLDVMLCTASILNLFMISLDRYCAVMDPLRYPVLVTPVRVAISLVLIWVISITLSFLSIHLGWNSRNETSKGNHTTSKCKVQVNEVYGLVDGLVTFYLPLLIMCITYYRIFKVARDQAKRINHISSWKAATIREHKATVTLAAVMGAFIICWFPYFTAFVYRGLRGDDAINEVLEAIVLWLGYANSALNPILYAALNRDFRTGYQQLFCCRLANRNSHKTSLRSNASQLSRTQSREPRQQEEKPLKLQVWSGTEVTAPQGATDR

The IC50 is the midpoint of a concentration-inhibition curve. Read a low IC50 as inhibition by little substance. With `O=S(=O)(NCc1ccc2c(c1)OCO2)c1ccc(Cc2ccc(S(=O)(=O)NCc3ccc4c(c3)OCO4)cc2)cc1` [M1i-124], the concentration for half-maximal inhibition (IC50) against HRH2 was found to be 2300 nM; against nAChR(a4/b2), 4000 nM; at OPRM1, 3700 nM; against CHRM2, 1200 nM; against KvLQT1/minK, 1800 nM.

For the molecule `COc1ccc(CNS(=O)(=O)c2ccc(Cc3ccc(S(=O)(=O)NCc4ccc(OC)cc4)cc3)cc2)cc1` [M1i-124d1], the Proliferation entry with OCI-Ly3 ABC-DLBCL cells is given as “inhibit the proliferation”. At BCL10-MALT1 interaction, the “ELISA IC50 compared with parent compound M1i-124” value is given as “lower IC50 as compared to parent compound”. On BCL10-MALT1 interaction (0.005% tween), the “Disruption of the BCL10-MALT1 interaction by ELISA in the presence of tween” value is given as “retain the ability to disrupt the BCL10-MALT1 interaction”.
